Results taken from the CheMixHub ionic liquid set.

Assay: xn = mol fraction of the nth substance listed

CCCCO + CCCC[n+]1ccn(C)c1.O=S(=O)([O-])C(F)(F)F
100 kPa, x2 = 0
Conditions	viscosity [mPa·s]
298.15 K	2.61
303.15 K	2.31
308.15 K	2.07
313.15 K	1.85
318.15 K	1.66
323.15 K	1.5

[Cl][Al]([Cl])[Cl] + CCCC[n+]1ccn(C)c1.[Cl-]
Conditions	electrical conductivity [S/m]	viscosity [mPa·s]
270.1 K, 101.3 kPa, x2 = 0.5263	0.158	–
270.1 K, 101.3 kPa, x2 = 0.5556	0.0827	–
275.6 K, 101.3 kPa, x2 = 0.3333	0.36	–
275.6 K, 101.3 kPa, x2 = 0.3636	0.38	–
275.6 K, 101.3 kPa, x2 = 0.4	0.412	–
275.6 K, 101.3 kPa, x2 = 0.4348	0.408	–
276.1 K, 101.3 kPa, x2 = 0.4762	0.415	–
276.1 K, 101.3 kPa, x2 = 0.5	0.423	–
276.1 K, 101.3 kPa, x2 = 0.5556	0.135	–
281.1 K, 101.3 kPa, x2 = 0.5263	0.328	–
281.1 K, 101.3 kPa, x2 = 0.5556	0.189	–
284.65 K, 101.3 kPa, x2 = 0.3333	0.578	–
284.65 K, 101.3 kPa, x2 = 0.3636	0.588	–
284.65 K, 101.3 kPa, x2 = 0.4	0.582	–
284.65 K, 101.3 kPa, x2 = 0.4348	0.599	–
284.65 K, 101.3 kPa, x2 = 0.4762	0.608	–
284.65 K, 101.3 kPa, x2 = 0.5	0.616	–
293.65 K, 101.3 kPa, x2 = 0.3333	0.774	–
293.65 K, 101.3 kPa, x2 = 0.3636	0.803	–
295.65 K, 101.3 kPa, x2 = 0.4	0.855	–
295.65 K, 101.3 kPa, x2 = 0.4348	0.911	–
295.65 K, 101.3 kPa, x2 = 0.4762	0.883	–
295.65 K, 101.3 kPa, x2 = 0.5	0.916	–
296.65 K, 101.3 kPa, x2 = 0.5263	0.639	–
296.65 K, 101.3 kPa, x2 = 0.5556	0.417	–
298.15 K, 101 kPa, x1 = 0.545	0.98	28.92
303.15 K, 101 kPa, x1 = 0.5238	–	26.36
303.15 K, 101 kPa, x1 = 0.5653	–	22.62
303.15 K, 101 kPa, x1 = 0.6429	–	17.68
303.15 K, 101 kPa, x1 = 0.643	1.06	17.7
303.15 K, 101 kPa, x1 = 0.667	1.05	–
303.15 K, 101.3 kPa, x2 = 0.3333	1.02	–
304.15 K, 101.3 kPa, x2 = 0.3333	1.05	–
304.65 K, 101.3 kPa, x2 = 0.5263	0.868	–
304.65 K, 101.3 kPa, x2 = 0.5556	0.586	–
305.15 K, 101.3 kPa, x2 = 0.3333	1.07	–
305.15 K, 101.3 kPa, x2 = 0.4	1.14	–
305.15 K, 101.3 kPa, x2 = 0.5	1.25	–
306.15 K, 101.3 kPa, x2 = 0.3636	1.16	–
306.15 K, 101.3 kPa, x2 = 0.4348	1.22	–
308.15 K, 101 kPa, x1 = 0.615	1.23	16.72
315.15 K, 101.3 kPa, x2 = 0.4762	1.57	–
315.15 K, 101.3 kPa, x2 = 0.5263	1.2	–
315.15 K, 101.3 kPa, x2 = 0.5556	0.851	–
316.15 K, 101.3 kPa, x2 = 0.3333	1.41	–
316.15 K, 101.3 kPa, x2 = 0.4	1.5	–
316.15 K, 101.3 kPa, x2 = 0.5	1.68	–
318.15 K, 101 kPa, x1 = 0.667	1.5	11.35
318.15 K, 101.3 kPa, x2 = 0.3636	1.54	–
318.15 K, 101.3 kPa, x2 = 0.4348	1.69	–
322.15 K, 101.3 kPa, x2 = 0.3333	1.62	–
323.15 K, 101 kPa, x1 = 0.5	–	16.06
323.15 K, 101 kPa, x1 = 0.6296	–	11.12
324.15 K, 101.3 kPa, x2 = 0.5	1.98	–
324.15 K, 101.3 kPa, x2 = 0.5263	1.5	–
324.15 K, 101.3 kPa, x2 = 0.5556	1.09	–
325.15 K, 101.3 kPa, x2 = 0.4	1.87	–
326.15 K, 101.3 kPa, x2 = 0.3636	1.82	–
326.15 K, 101.3 kPa, x2 = 0.4348	1.95	–
328.15 K, 101 kPa, x1 = 0.643	1.88	9.76
331.15 K, 101.3 kPa, x2 = 0.4762	2.25	–
332.15 K, 101.3 kPa, x2 = 0.3333	2	–
333.15 K, 101 kPa, x1 = 0.5238	–	12.28
333.15 K, 101 kPa, x1 = 0.6001	–	9.9
333.15 K, 101 kPa, x1 = 0.615	2.16	9.5
333.15 K, 101 kPa, x1 = 0.6296	–	9.15
333.15 K, 101.3 kPa, x2 = 0.4	2.21	–
333.15 K, 101.3 kPa, x2 = 0.5	2.43	–
334.15 K, 101.3 kPa, x2 = 0.3636	2.15	–
334.15 K, 101.3 kPa, x2 = 0.4348	2.33	–
334.15 K, 101.3 kPa, x2 = 0.5263	1.94	–
334.15 K, 101.3 kPa, x2 = 0.5556	1.42	–
340.15 K, 101.3 kPa, x2 = 0.3333	2.29	–
340.15 K, 101.3 kPa, x2 = 0.4762	2.65	–
342.15 K, 101.3 kPa, x2 = 0.3636	2.45	–
342.65 K, 101.3 kPa, x2 = 0.4348	2.72	–
343.15 K, 101 kPa, x1 = 0.5834	–	8.63
343.15 K, 101.3 kPa, x2 = 0.4	2.62	–
343.65 K, 101.3 kPa, x2 = 0.5	2.92	–
344.15 K, 101.3 kPa, x2 = 0.5263	2.39	–
345.15 K, 101.3 kPa, x2 = 0.5556	1.81	–
347.15 K, 101.3 kPa, x2 = 0.3333	2.58	–
347.15 K, 101.3 kPa, x2 = 0.4762	3.04	–
350.15 K, 101.3 kPa, x2 = 0.3636	2.86	–
351.15 K, 101.3 kPa, x2 = 0.4348	3.15	–
351.65 K, 101.3 kPa, x2 = 0.4	3.02	–
351.65 K, 101.3 kPa, x2 = 0.5	3.33	–
352.15 K, 101.3 kPa, x2 = 0.5263	2.81	–
352.15 K, 101.3 kPa, x2 = 0.5556	2.12	–
358.15 K, 101.3 kPa, x2 = 0.3333	3	–
358.15 K, 101.3 kPa, x2 = 0.4762	3.59	–
360.15 K, 101.3 kPa, x2 = 0.3636	3.29	–
360.15 K, 101.3 kPa, x2 = 0.4348	3.59	–
361.15 K, 101.3 kPa, x2 = 0.4	3.46	–
361.15 K, 101.3 kPa, x2 = 0.5	3.86	–
361.65 K, 101.3 kPa, x2 = 0.5263	3.32	–
361.65 K, 101.3 kPa, x2 = 0.5556	2.56	–
367.15 K, 101.3 kPa, x2 = 0.3333	3.41	–
367.15 K, 101.3 kPa, x2 = 0.4762	4.14	–
370.15 K, 101.3 kPa, x2 = 0.3636	3.7	–
370.15 K, 101.3 kPa, x2 = 0.4348	4.08	–
370.15 K, 101.3 kPa, x2 = 0.5263	3.76	–
370.15 K, 101.3 kPa, x2 = 0.5556	2.97	–
371.15 K, 101.3 kPa, x2 = 0.4	3.96	–
371.15 K, 101.3 kPa, x2 = 0.5	4.49	–
379.15 K, 101.3 kPa, x2 = 0.3333	4.07	–
379.15 K, 101.3 kPa, x2 = 0.4762	4.87	–

Conditions	electrical conductivity [S/m]
306.15 K, 101 kPa, frequency 1 MHz, x2 = 0.625	0.227

CC[N+](C)(CC)CCOC.O=S(=O)([N-]S(=O)(=O)C(F)(F)F)C(F)(F)F + CCCCn1cc[n+](C)c1C.O=S(=O)([N-]S(=O)(=O)C(F)(F)F)C(F)(F)F
100 kPa
Conditions	electrical conductivity [S/m]
293.15 K, x1 = 0.2	0.192
293.15 K, x1 = 0.5	0.202
298.15 K, x1 = 0.2	0.256
313.15 K, x1 = 0.5	0.517
313.15 K, x1 = 0.7	0.527
318.15 K, x1 = 0.2	0.594
323.15 K, x1 = 0.7	0.755
328.15 K, x1 = 0.1	0.82
328.15 K, x1 = 0.3	0.845
328.15 K, x1 = 0.4	0.847
333.15 K, x1 = 0.6	0.999
343.15 K, x1 = 0.1	1.24
343.15 K, x1 = 0.2	1.24

CCCCCCCCn1cc[n+](C)c1.O=[N+]([O-])[O-] + CCCO
101 kPa
Conditions	viscosity [mPa·s]
288.15 K, x2 = 0.258	356
288.15 K, x2 = 0.556	52
293.15 K, x2 = 0.47	75.4
293.15 K, x2 = 0.556	42.1
293.15 K, x2 = 0.671	19.89
298.15 K, x2 = 0.866	5.08
303.15 K, x2 = 0.258	147
303.15 K, x2 = 0.364	78.7
308.15 K, x2 = 0.556	24.01
313.15 K, x2 = 0.47	32.9
313.15 K, x2 = 0.671	10.83
318.15 K, x2 = 0.258	65.9
318.15 K, x2 = 0.671	9.5
328.15 K, x2 = 0.556	11.56

CCOP(=O)([O-])OCC.CC[n+]1ccn(C)c1 + CCCO + O
100 kPa
Conditions	viscosity [mPa·s]
293.15 K, x2 = 0.347, x3 = 0.3491	90
303.15 K, x2 = 0.294, x3 = 0.304	78
313.15 K, x2 = 0.15, x3 = 0.1487	93
313.15 K, x2 = 0.199, x3 = 0.1954	76
323.15 K, x2 = 0.048, x3 = 0.0487	80

CCCCCCCCn1cc[n+](C)c1.F[B-](F)(F)F + CCCOC(C)=O
298.15 K, 101 kPa
Conditions	viscosity [mPa·s]
x2 = 0.3984	44.84
x2 = 0.4496	33.85
x2 = 0.5551	18.72

CCCCCCCCCCCCCC[P+](CCCCCC)(CCCCCC)CCCCCC.O=S(=O)([N-]S(=O)(=O)C(F)(F)F)C(F)(F)F + CCC[N+]1(C)CCCC1.O=S(=O)([N-]S(=O)(=O)C(F)(F)F)C(F)(F)F
Conditions	electrical conductivity [S/m]
293.15 K, 101 kPa, x1 = 1	0.00719

O=C1CCCO1 + CCC[N+]1(C)CCCC1.O=S(=O)([N-]S(=O)(=O)C(F)(F)F)C(F)(F)F
101 kPa, x2 = 0
Conditions	viscosity [mPa·s]
288.15 K	2.146
318.15 K	1.398
348.15 K	0.99

CCCCCCCCn1cc[n+](C)c1.F[B-](F)(F)F + CCO
Conditions	viscosity [mPa·s]
283.15 K, 101 kPa, x2 = 0.081	720

CCCCCCCCn1cc[n+](C)c1.O=[N+]([O-])[O-] + CCO
101 kPa
Conditions	viscosity [mPa·s]
283.15 K, x2 = 0.554	48.2
288.15 K, x2 = 0.357	162
288.15 K, x2 = 0.868	4.46
293.15 K, x2 = 0.455	59.7
293.15 K, x2 = 0.767	8.59
298.15 K, x2 = 0.767	7.54
303.15 K, x2 = 0.554	21.79
303.15 K, x2 = 0.767	6.47
313.15 K, x2 = 0.767	4.99
318.15 K, x2 = 0.128	112
318.15 K, x2 = 0.357	39.8
318.15 K, x2 = 0.455	21.77
328.15 K, x2 = 0.128	53.6
328.15 K, x2 = 0.357	23.9
328.15 K, x2 = 0.554	9.29
